Results from PubChem BioAssay (NCI).
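Tested at 5 concentrations; 48 h exposure; 96-well plates; endpoints linearly interpolated, else capped at highest concentration. GI50 marks 50% less growth. TGI is the concentration that stops growth completely.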

Assays:
Assay in all cases: growth of human tumour cells (NCI), 48 h
[1] = system: MDA-MB-435
[2] = system: 786-0 renal
[3] = system: BT-549 breast
[4] = system: TK-10 renal
[5] = system: HCC-2998 colon
[6] = system: OVCAR-4 ovarian
[7] = system: ACHN renal
[8] = system: A549 NSCLC

SMILES	GI50 [1] [µM]	TGI [1] [µM]	GI50 [2] [µM]	TGI [2] [µM]	GI50 [3] [µM]	TGI [3] [µM]	GI50 [4] [µM]	TGI [4] [µM]	GI50 [5] [µM]	TGI [5] [µM]	GI50 [6] [µM]	TGI [6] [µM]	GI50 [7] [µM]	TGI [7] [µM]	GI50 [8] [µM]	TGI [8] [µM]
COc1cc(-c2nc(-c3nnc(-c4ccc(F)c(Cl)c4)o3)c3ccccn23)cc(OC)c1OC	3.09	> 100	2.93	78.8	1.67	4.46	2.4	5.9	5.64	> 100						
OC(COc1cccc2ccccc12)CN1CCN(c2ccc(Cl)cc2)CC1 (stereo not given)	38.8	> 100	16.3	33.1	> 100	> 100	10.1	26.5	> 100	> 100	21.7	49.3	11.8	> 100	19.4	> 100
C=CC[N+]1(CCO)CCN=C1CCCCCCCCCCCCC (stereo not given)	1.72	3.09	1.65	3.01	1.76	3.24	1.99	3.4	1.37	2.66	1.67	3.45			1.83	3.3
COc1cc2cn3c4ccc(O)cc4nc(N)c3c2cc1OC	0.0195	12.8	0.675	3.05	1.61	8.96	1.54	9.55	0.606	7.29	0.651	12.4	0.191	2.77	0.839	12.9
COc1ccc2[nH]c(-c3ccccc3)c(C=C(C#N)C#N)c2c1	0.607	4.68	6.63	> 100	2.17	> 100	5.07	> 100	6.08	> 100	5.36	> 100	7.41	> 100	6.97	> 100
CCOC(=O)/C(=C/c1ccccc1)C(=O)c1ccccc1	2.96	11.5	3.02	8.09	6.29	19.6	3.41	11.2	1.93	3.69	14.4	35.4	2.62	6.99	4.4	19.9
O=C(Nc1ccc(Cl)cc1F)c1cc(F)ccc1O	0.626	5.51	2.73	9.73	0.83	4.02	4.69	23.1	2.64	8.1	0.941	> 29.6	0.83	8.27	2.79	> 45.8
O=C1c2ccc3c4c(ccc(c24)C(=O)N1CCCNCc1ccccc1)C(=O)N(CCCNCc1ccccc1)C3=O	0.18	0.356	0.251	0.837	0.451	0.889	0.119	0.413	0.154	0.303	0.119	0.248	0.135	0.722	0.131	0.365
